Laboratory results reported in patent US5691373A, “Nonpeptide endothelin antagonists I” (Warner-Lambert Company, priority 1995, dated 1997).
Like-named read-outs stand apart in the source and are kept apart here.

How the values were obtained:
ETB = molecular target: T1, ETB (Rattus norvegicus, UniProt P21451)
T1 sequence (P21451 27-442): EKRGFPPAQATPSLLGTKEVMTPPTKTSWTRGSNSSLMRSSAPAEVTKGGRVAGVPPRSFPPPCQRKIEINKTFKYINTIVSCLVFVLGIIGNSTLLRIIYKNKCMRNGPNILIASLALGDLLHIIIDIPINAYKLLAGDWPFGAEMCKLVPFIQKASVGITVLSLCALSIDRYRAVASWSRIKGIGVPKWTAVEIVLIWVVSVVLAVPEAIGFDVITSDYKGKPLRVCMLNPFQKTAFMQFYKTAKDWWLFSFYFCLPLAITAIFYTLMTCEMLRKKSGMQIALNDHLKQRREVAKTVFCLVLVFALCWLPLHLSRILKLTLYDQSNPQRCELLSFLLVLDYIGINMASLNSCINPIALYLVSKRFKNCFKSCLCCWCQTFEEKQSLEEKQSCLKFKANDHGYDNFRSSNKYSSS

ETA = molecular target: T2, ETA (Oryctolagus cuniculus, UniProt A5A8K3)
T2 sequence (A5A8K3 21-427): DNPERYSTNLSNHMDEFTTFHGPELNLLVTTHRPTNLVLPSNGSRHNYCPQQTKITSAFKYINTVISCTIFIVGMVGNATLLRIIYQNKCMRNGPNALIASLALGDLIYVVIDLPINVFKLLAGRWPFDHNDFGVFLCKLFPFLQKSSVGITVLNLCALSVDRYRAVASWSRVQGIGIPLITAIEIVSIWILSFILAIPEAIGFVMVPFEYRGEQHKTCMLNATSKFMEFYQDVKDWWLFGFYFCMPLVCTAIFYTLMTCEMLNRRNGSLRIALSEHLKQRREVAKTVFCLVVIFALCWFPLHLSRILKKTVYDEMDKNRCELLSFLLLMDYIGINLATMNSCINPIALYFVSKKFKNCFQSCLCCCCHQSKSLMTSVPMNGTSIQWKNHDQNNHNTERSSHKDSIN
Method: The cells used were rabbit renal artery vascular smooth muscle cells grown in a 48-well dish (1 cm^2) (confluent cells).
The growth media was Dulbecco's Modified Eagles/Ham's F12 which contained 10% fetal bovine serum and antibiotics (penicillin/streptomycin/fungizone).
Second, remove the assay buffers, place the dish on ice, and add 150 μL of cold assay buffer described above to each well. […] Next, place dish in a 37° C., water bath for about 2 hours and gently agitate the dish every 15 minutes. Discard the radioactive incubation mixture in the sink and wash wells 3 times with 1 mL of cold phosphate buffered saline.

[1] = ERBA-A IC50, [125I]-ET-1, rabbit renal artery vascular smooth muscle cells

IC50 (ETB) [nM]	IC50 (ETA; [1]) [nM]	IC50 (ETB; read-out: ERBA-B IC50, [125I]-ET-1, rat cerebellar membranes) [nM]	IC50 (ETA; read-out: ERBA-A IC50, [125I]-ET-1, rabbit renal artery vascular smooth muscle cells) [nM]	Compound
15600	1700	–	–	O=C1OC(O)(c2ccccc2)C(Cc2cccs2)=C1c1ccc2c(c1)OCO2 (stereo not shown) [Example 25, 2(5H)-Furanone, 3-(1,3-benzodioxol-5-yl)-5-hydroxy-5-phenyl-4-(2-thienylmethyl)-]
15500	790	–	–	O=C1OC(O)(c2ccccc2)C(Cc2ccsc2)=C1c1ccc2c(c1)OCO2 (stereo not shown) [Example 26, 2(5H)-Furanone, 3-(1,3-benzodioxol-5-yl)-5-hydroxy-5-phenyl-4-(3-thienylmethyl)-]
13000	7900	–	–	O=C1OC(O)(c2ccc(Cl)cc2)C(Cc2ccccc2)=C1c1ccc2c(c1)OCCO2 (stereo not shown) [Example 30, 2(5H)-Furanone, 5-(4-chlorophenyl)-3-(2,3-dihydro-1,4-benzodioxin-6-yl)-5-hydroxy-4-(phenylmethyl)-]
9100	9900	–	–	O=C1OC(O)(c2ccc(Cl)cc2)C(Cc2ccc(Cl)cc2)=C1c1ccc2c(c1)OCO2 (stereo not shown) [Example 31, 2(5H)-Furanone, 3-(1,3-benzodioxol-5-yl)-5-(4-chlorophenyl)-4-[(4-chlorophenyl)methyl]-5-hydroxy-]
5700	3500	–	–	Cc1ccc(CC2=C(c3ccc4c(c3)OCO4)C(=O)OC2(O)c2ccc(Cl)cc2)cc1 (stereo not shown) [Example 33, 2(5H)-Furanone, 3-(1,3-benzodioxol-5-yl)-5-(4-chlorophenyl)-5-hydroxy-4-[(4-methylphenyl)methyl]-]
7000	1300	–	–	Cc1cccc(CC2=C(c3ccc4c(c3)OCO4)C(=O)OC2(O)c2ccc(Cl)cc2)c1 (stereo not shown) [Example 34, 2(5H)-Furanone, 3-(1,3-benzodioxol-5-yl)-5-(4-chlorophenyl)-5-hydroxy-4-[(3-methylphenyl)methyl]-]
7800	3900	–	–	COc1cccc(CC2=C(c3ccc4c(c3)OCO4)C(=O)OC2(O)c2ccc(Cl)cc2)c1 (stereo not shown) [Example 47, 2(5H)-Furanone, 3-(1,3-benzodioxol-5-yl)-5-(4-chlorophenyl)-5-hydroxy-4-[(3-methoxyphenyl)methyl]-]
6200	1200	–	–	O=C1OC(O)(c2ccc(Cl)cc2)C(Cc2ccsc2)=C1c1ccc2c(c1)OCO2 (stereo not shown) [Example 48, 2(5H)-Furanone, 3-(1,3-benzodioxol-5-yl)-5-(4-chlorophenyl)-5-hydroxy-4-(3-thienylmethyl)-]
–	–	12000	2500	O=C1OC(O)(c2ccc(Cl)cc2)C(Cc2cccc(Cl)c2)=C1c1ccc2c(c1)OCO2 (stereo not shown) [Example 74, 2(5H)-Furanone, 3-(1,3-benzodioxol-5)-5-(4-chlorophenyl)-4-[(3-chlorophenyl)methyl]-5-hydroxy]
21000	2300	–	–	O=C1OC(O)(c2c(F)cccc2F)C(Cc2ccccc2)=C1c1ccc2c(c1)OCO2 (stereo not shown) [Example 158, 3-Benzo[1,3]dioxol-5-yl-4-benzyl-5-(2,6-difluorophenyl)-5-hydroxy-5H-furan-2-one]
8000	290	–	–	Cc1ccccc1C1(O)OC(=O)C(c2ccc3c(c2)OCO3)=C1Cc1ccccc1 (stereo not shown) [Example 216, 3-Benzo[1,3]dioxol-5-yl-4-benzyl-5-hydroxy-5-o-tolyl-5H-furan-2-one]
1500	300	–	–	COc1cccc(C2(O)OC(=O)C(c3ccc4c(c3)OCO4)=C2Cc2ccccc2)c1 (stereo not shown) [Example 220, 3-Benzo[1,3]dioixol-5-yl-4-benzyl-5-hydroxy-5-(3-methoxyphenyl)-5H-furan-2-one]

The remaining lines, values behind:

Compound	IC50 (ETB) [nM]	IC50 (ETA; [1]) [nM]	IC50 (ETB; read-out: ERBA-B IC50, [125I]-ET-1, rat cerebellar membranes) [nM]	IC50 (ETA; read-out: ERBA-A IC50, [125I]-ET-1, rabbit renal artery vascular smooth muscle cells) [nM]
COc1ccc(C2=C(Cc3ccccc3)C(O)(c3ccc(Cl)cc3)OC2=O)cc1OC (racemic) [Example 67, 2(5H)-Furanone, 5-(4-chlorophenyl)-3-(3,4-dimethoxyphenyl)-5-hydroxy-4-(phenylmethyl)-, (±)-]	6300	7100	–	–
COc1ccc(CC2=C(c3ccc(OC)c(OC)c3)C(=O)OC2(O)c2ccc(Cl)cc2)cc1OC (racemic) [Example 68, 2(5H)-Furanone, 5-(4-chlorophenyl)-3-(3,4-dimethoxyphenyl)-4-[(3,4-dimethoxyphenyl)methyl]-5-hydroxy-, (±)-]	9800	1700	–	–
O=C1OC(O)(c2ccc(Cl)cc2)C(Cc2ccc3c(c2)OCO3)=C1c1ccc(Cl)c(Cl)c1 (racemic) [Example 69, 2(5H)-Furanone, 4-(1,3-benzodioxol-5-ylmethyl)-5-(4-chlorophenyl)-3-(3,4-dichlorophenyl)-5-hydroxy-, (±)-]	8400	9100	–	–
COc1ccc(C2=C(Cc3ccc(C(C)C)cc3)C(O)(c3ccc(Cl)cc3)OC2=O)cc1OC (racemic) [Example 70, 2(5H)-Furanone, 5-(4-chlorophenyl)-3-(3,4-dimethoxyphenyl)-5-hydroxy-4-[[4-(1-methylethyl)phenyl]methyl]-, (±)-]	15000	9300	–	–
COc1ccc(C2=C(Cc3ccc(Cl)c(Cl)c3)C(O)(c3ccc(Cl)cc3)OC2=O)cc1OC (racemic) [Example 73, 2(5H)-Furanone, 5-(4-chlorophenyl)-4-[(3,4-dichlorophenyl)methyl]-3-(3,4-dimethoxyphenyl)-5-hydroxy-, (±)-]	13000	21000	–	–
COc1ccc(CC2=C(c3ccc4c(c3)OCO4)C(=O)OC2(O)c2ccc(Cl)cc2)cc1 (stereo not shown) [Example 32, 2(5H)-Furanone, 3-(1,3-benzodioxol-5-yl)-5-(4-chlorophenyl)-5-hydroxy-4-[(4-methoxyphenyl)methyl]-]	6300	1000	–	–
O=C1OC(O)(c2ccc(Cl)cc2)C(Cc2cccs2)=C1c1ccc2c(c1)OCO2 (stereo not shown) [Example 35, 2(5H)-Furanone, 3-(1,3-benzodioxol-5-yl)-5-(4-chlorophenyl)-5-hydroxy-4-(2-thienylmethyl)-]	3300	1100	–	–
COc1ccc(C2(O)OC(=O)C(c3ccc4c(c3)OCO4)=C2Cc2ccc(Cl)c(Cl)c2)cc1 (stereo not shown) [Example 78, 3-Benzo[1,3]dioxol-5-yl-4-(3,4-dichlorobenzyl)-5-hydroxy-5-(4-methoxyphenyl)-5H-furan-2-one]	890	240	–	–
COc1ccc(C2(O)OC(=O)C(c3ccc4c(c3)OCO4)=C2Cc2ccc(C(C)(C)C)cc2)cc1 (stereo not shown) [Example 79, 3-Benzo[1,3]dioxol-5-yl-4-(4-tert-butylbenzyl)-5-hydroxy-5-(4-methoxyphenyl)-5H-furan-2-one]	520	84	–	–
COc1ccc(C2(O)OC(=O)C(c3ccc4c(c3)OCO4)=C2Cc2ccc(Br)cc2)cc1 (stereo not shown) [Example 83, 3-Benzo[1,3]dioxol-5-yl-4-(4-bromobenzyl)-5-hydroxy-5-(4-methoxyphenyl)-5H-furan-2-one]	500	71	–	–
CC(C)c1ccc(CC2=C(c3ccc(Cl)c(Cl)c3)C(=O)OC2(O)c2ccc(Cl)cc2)cc1 (stereo not shown) [Example 118, 5-(4-Chlorophenyl)-3-(3,4-dichlorophenyl)-5-hydroxy-4-(4-isopropylbenzyl)-5 H-furan-2-one]	13000	540	–	–
CN(C)c1ccc(CC2=C(c3ccc(Cl)c(Cl)c3)C(=O)OC2(O)c2ccc(Cl)cc2)cc1 (stereo not shown) [Example 119, 5-(4-Chlorophenyl)-3-(3,4-dichlorophenyl)-4-(4-dimethylaminobenzyl)-5-hydroxy-5H-furan-2-one]	4100	5800	–	–
COc1ccc(C2(O)OC(=O)C(c3cc(OC)cc(OC)c3)=C2Cc2ccccc2)cc1 (stereo not shown) [Example 125, 4-Benzyl-3-(3,5-dimethoxyphenyl)-5-hydroxy-5-(4-methoxyphenyl)-5H-furan-2-one]	200	29	–	–
COc1ccc(C2(O)OC(=O)C(c3cc(OC)cc(OC)c3)=C2Cc2cccc(C=O)c2)cc1 (stereo not shown) [Example 134, 3-[4-(3,5-Dimethoxyphenyl)-2-hydroxy-2-(4-methoxyphenyl)-5-oxo-2,5-dihydrof uran-3-ylmethyl]benzaldehyde]	1200	24	–	–
COc1ccc(C2(O)OC(=O)C(c3cccc(OC)c3)=C2Cc2ccccc2)cc1 (stereo not shown) [Example 153, 4-Benzyl-5-hydroxy-5-(4-methoxyphenyl)-3-(3-methoxyphenyl)-5H-furan-2-one]	2000	360	–	–
CCCOc1cccc(CC2=C(c3cccc(OC)c3)C(=O)OC2(O)c2ccc(OC)cc2)c1 (stereo not shown) [Example 154, 5-Hydroxy-5-(4-methoxyphenyl)-3-(3-methoxyphenyl)-4-(3-propoxybenzyl)-5H-fu ran-2-one]	2100	100	–	–
COc1ccc(C2(O)OC(=O)C(c3cn(C)c4ccccc34)=C2Cc2ccccc2)cc1 (stereo not shown) [Example 170]	900	1300	–	–
